Measurements from patent US7893062B2, “Pyrrolidine derivatives as dual NK1/NK3 receptor antagonists” (Hoffmann-La Roche Inc., priority 2007, dated 2011).

How the values were obtained:
[1] = target: T1, human NK3 (hNK3) receptor (Homo sapiens, UniProt P29371); experiment: Recombinant hNK3 receptor affinity, [3H]SR142801 displacement; format: binding; conditions: recombinant hNK3 membranes, [3H]SR142801 0.3 nM
T1 construct: expressed in transfected cells
T1 sequence (P29371 1-465): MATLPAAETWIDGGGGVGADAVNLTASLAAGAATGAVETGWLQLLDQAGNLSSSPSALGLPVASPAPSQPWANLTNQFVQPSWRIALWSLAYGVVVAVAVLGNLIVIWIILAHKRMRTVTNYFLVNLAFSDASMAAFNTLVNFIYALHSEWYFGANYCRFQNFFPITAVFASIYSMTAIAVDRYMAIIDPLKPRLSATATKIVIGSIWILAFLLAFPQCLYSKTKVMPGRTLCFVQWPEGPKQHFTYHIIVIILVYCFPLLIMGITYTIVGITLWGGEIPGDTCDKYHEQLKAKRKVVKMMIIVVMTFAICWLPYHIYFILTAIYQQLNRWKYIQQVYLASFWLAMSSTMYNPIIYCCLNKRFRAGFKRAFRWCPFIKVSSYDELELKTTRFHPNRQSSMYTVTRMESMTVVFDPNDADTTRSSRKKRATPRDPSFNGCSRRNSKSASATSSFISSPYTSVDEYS
Method: Recombinant human NK3 (hNK3) receptor affinity was determined in a 96 well plate assay, using [^3H]SR142801 (final concentration 0.3 nM) to radiolabel the hNK3 receptor in the presence of 10 concentrations of competing compound or buffer. Non specific binding was determined using 10 μM SB222200. Assay buffer consisted of Tris-HCl (50 mM, pH 7.4), BSA (0.1%), MnCl2 (4 mM) and phosphoramidon (1 μM). Membrane preparations of hNK3 receptors (approximately 2.5 μg/well in a 96 well plate) were used to initiate the incubation for 90 min at room temperature. This assay was terminated by rapid filtration under vacuum through GF/C filters, presoaked for 90 min with PEI (0.3%), with 3×0.5 ml washes of ice-cold Tris buffer (50 mM, pH 7.4) containing 0.1% BSA. The radioactivity retained on the filters was measured by scintillation counting. All assays were performed in duplicate in at least two separate experiments.

[2] = target: human NK1 receptor (Homo sapiens, UniProt P25103); experiment: NK1 receptor affinity, [3H]substance P displacement in CHO cell membranes; format: binding; conditions: human NK1 receptor in CHO cells, [3H]substance P 0.6 nM
Chain of human NK1 receptor (P25103 whole entry): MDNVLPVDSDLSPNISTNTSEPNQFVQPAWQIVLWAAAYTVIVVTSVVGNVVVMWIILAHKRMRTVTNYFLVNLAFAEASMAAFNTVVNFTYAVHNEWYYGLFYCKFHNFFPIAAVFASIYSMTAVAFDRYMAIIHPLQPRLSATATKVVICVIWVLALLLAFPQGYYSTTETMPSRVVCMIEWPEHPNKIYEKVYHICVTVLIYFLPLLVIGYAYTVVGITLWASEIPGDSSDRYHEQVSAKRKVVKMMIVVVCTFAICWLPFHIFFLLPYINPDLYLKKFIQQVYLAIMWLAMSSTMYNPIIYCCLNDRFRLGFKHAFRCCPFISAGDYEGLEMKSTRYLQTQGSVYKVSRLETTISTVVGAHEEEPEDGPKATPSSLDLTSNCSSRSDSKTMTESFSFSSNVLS
Method: The affinity of test compounds for the NK1 receptor was evaluated at human NK1 receptors in CHO cells infected with the human NK1 receptor (using the Semliki virus expression system) and radiolabelled with [^3H]substance P (final concentration 0.6 nM). Binding assays were performed in HEPES buffer (50 mM, pH 7.4) containing BSA (0.04%) leupeptin (16.8 μg/ml), MnCl2 (3 mM) and phosphoramidon (2 μM). Binding assays consisted of 250 μl of membrane suspension (approximately 1.5 μg/well in a 96 well plate), […] of buffer of displacing agent and 125 μl of [^3H]substance P. Displacement curves were determined with at least seven concentrations of the compound. The assay tubes were incubated for 60 min at room temperature after which time the tube contents were rapidly filtered under vacuum through GF/C filters presoaked for 60 min with PEI (0.3%) with 3×1 ml washes of HEPES buffer (50 mM, pH 7.4). The radioactivity retained on the filters was measured by scintillation counting. All assays were performed in duplicate in at least 2 separate experiments. NK3

[3] = phase II trial, cited from earlier work

Row | Structure (SMILES) | Ki [1] | Ki [2] | activity on positive symptoms of schizophrenia ([3]; altered behaviour, delusion, hallucinations, extreme emotions, excited motor activity, incoherent speech) | activity in the treatment of negative symptoms of schizophrenia ([3]; depression, anhedonia, social isolation, memory and attention deficits)
1 | CN(C(=O)C(C)(C)c1cc(C(F)(F)F)cc(C(F)(F)F)c1)[C@@H]1CN(C(=O)N2CCN(S(C)(=O)=O)CC2)C[C@H]1c1ccccc1 (racemic) [Example 22, rac-2-(3,5-Bis-trifluoromethyl-phenyl)-N-[(3S,4R)-1-(4-methanesulfonyl-piperazine-1-carbonyl)-4-phenyl-pyrrolidin-3-yl]-N-methyl-isobutyramide] | 203 nM | 0.875 nM |  | 
2 | CN(C(=O)C(C)(C)c1cc(Cl)cc(Cl)c1)[C@@H]1CN(C(=O)N2CCN(S(C)(=O)=O)CC2)C[C@H]1c1ccc(F)cc1 (racemic) [Example 23, rac-2-(3,5-Dichloro-phenyl)-N-[(3S,4R)-4-(4-fluoro-phenyl)-1-(4-methanesulfonyl-piperazine-1-carbonyl)-pyrrolidin-3-yl]-N-methyl-isobutyramide] | 92.4 nM | 1.12 nM |  | 
3 | CC(=O)N(C)C1(c2ccccc2)CCN(CCC[C@]2(c3ccc(Cl)c(Cl)c3)CCCN(C(=O)c3ccccc3)C2)CC1 [SR 142,801, Osanetant] |  |  | active | inactive
4 | Cc1cc(F)ccc1[C@@H]1CN(C(=O)N2CCN(S(C)(=O)=O)CC2)C[C@H]1N(C)C(=O)C(C)(C)c1cc(C(F)(F)F)cc(C(F)(F)F)c1 (racemic) [Example 28, rac-2-(3,5-Bis-trifluoromethyl-phenyl)-N-[(3S,4R)-4-(4-fluoro-2-methyl-phenyl)-1-(4-methanesulfonyl-piperazine-1-carbonyl)-pyrrolidin-3-yl]-N-methyl-isobutyramide] | 137 nM | 0.689 nM |  | 
5 | CN(C(=O)C(C)(C)c1cc(C(F)(F)F)cc(C(F)(F)F)c1)[C@@H]1CN(C(=O)N(CCO)CCO)C[C@H]1c1ccc(F)cc1 (racemic) [Example 21, rac-(3S,4R)-3-{[2-(3,5-Bis-trifluoromethyl-phenyl)-2-methyl-propionyl]-methyl-amino}-4-(4-fluoro-phenyl)-pyrrolidine-1-carboxylic acid bis-(2-hydroxy-ethyl)-amide] | 204 nM | 1.08 nM |  | 
6 | CN(C(=O)C(C)(C)c1cc(Cl)cc(Cl)c1)[C@@H]1CN(C(=O)N2CCN(S(C)(=O)=O)CC2)C[C@H]1c1ccc(Cl)cc1 (racemic) [Example 55, rac-N-[(3S,4R)-4-(4-Chloro-phenyl)-1-(4-methanesulfonyl-piperazine-1-carbonyl)-pyrrolidin-3-yl]-2-(3,5-dichloro-phenyl)-N-methyl-isobutyramide] | 30 nM | 3.16 nM |  | 
7 | CN(C(=O)C(C)(C)c1cc(C(F)(F)F)cc(C(F)(F)F)c1)[C@@H]1CN(C(=O)NCCO)C[C@H]1c1ccc(F)cc1 (racemic) [Example 26, rac-(3S,4R)-3-{[2-(3,5-Bis-trifluoromethyl-phenyl)-2-methyl-propionyl]-methyl-amino}-4-(4-fluoro-phenyl)-pyrrolidine-1-carboxylic acid (2-hydroxy-ethyl)-amide] | 212 nM | 0.634 nM |  | 
8 | CN(C(=O)C(C)(C)c1cc(C(F)(F)F)cc(C(F)(F)F)c1)[C@@H]1CN(C(=O)N2CCOCC2)C[C@H]1c1ccc(Cl)cc1 (racemic) [Example 2, rac-2-(3,5-Bis-trifluoromethyl-phenyl)-N-[(3S,4R)-4-(4-chloro-phenyl)-1-(morpholine-4-carbonyl)-pyrrolidin-3-yl]-N-methyl-isobutyramide] | 457 nM | 2.35 nM |  | 
9 | CN(C(=O)C(C)(C)c1cc(Cl)cc(Cl)c1)[C@@H]1CN(C(=O)N2CCOCC2)C[C@H]1c1ccc(F)cc1 (racemic) [Example 24, rac-2-(3,5-Dichloro-phenyl)-N-[(3S,4R)-4-(4-fluoro-phenyl)-1-(morpholine-4-carbonyl)-pyrrolidin-3-yl]-N-methyl-isobutyramide] | 200 nM | 1.92 nM |  | 
10 | CC(=O)N1CCN(C(=O)N2C[C@@H](N(C)C(=O)C(C)(C)c3cc(C(F)(F)F)cc(C(F)(F)F)c3)[C@H](c3ccc(F)cc3)C2)CC1 (racemic) [Example 16, rac-N-[(3S,4R)-1-(4-Acetyl-piperazine-1-carbonyl)-4-(4-fluoro-phenyl)-pyrrolidin-3-yl]-2-(3,5-bis-trifluoromethyl-phenyl)-N-methyl-isobutyramide] | 309 nM | 1.41 nM |  | 
11 | Cc1cc(F)ccc1[C@@H]1CN(C(=O)N2CCOCC2)C[C@H]1N(C)C(=O)C(C)(C)c1cc(C(F)(F)F)cc(C(F)(F)F)c1 (racemic) [Example 27, rac-2-(3,5-Bis-trifluoromethyl-phenyl)-N-[(3S,4R)-4-(4-fluoro-2-methyl-phenyl)-1-(morpholine-4-carbonyl)-pyrrolidin-3-yl]-N-methyl-isobutyramide] | 276 nM | 0.341 nM |  | 
12 | CN(C(=O)C(C)(C)c1cc(C(F)(F)F)cc(C(F)(F)F)c1)[C@@H]1CN(C(=O)N2CCN(S(C)(=O)=O)CC2)C[C@H]1c1ccc(F)cc1 (racemic) [Example 15, rac-2-(3,5-Bis-trifluoromethyl-phenyl)-N-[(3S,4R)-4-(4-fluoro-phenyl)-1-(4-methanesulfonyl-piperazine-1-carbonyl)-pyrrolidin-3-yl]-N-methyl-isobutyramide] | 155 nM | 2.06 nM |  | 
